Source: patent US20130315886A1, “RETROELEMENTS AND MENTAL DISORDERS AND METHODS OF MEASURING L1 RETROTRANSPOSITION” (Salk Institute for Biological Studies, priority 2009, published 2013)
Values belong to the molecule of their own block, whether it stands above or below them.

What was measured:
[1] = tested on: L1 5′UTR CpG islands; assay: Bisulfite analysis of L1 5′UTR DNA methylation in NSCs; format: cell-based, rat; conditions: treatment for 4-days
Procedure: Genomic DNA from NSCs was isolated using standard phenol-chloroform extraction techniques. Subsequently, DNA was digested with the restriction enzyme EcoRI and the bisulfite conversion reaction was performed using the Epitect kit (Quiagen), following manufacturer's instructions. Primers were designed based on the rat L1 sequence Mlvi2, using Methyl Primer Express; […]. PCR products were cloned into TOPO TA 2.1 plasmids (Invitrogen) and 40 bacterial colonies were analyzed by sequencing.

[2] = tested on: L1 promoter region (5′UTR); assay: Chromatin immunoprecipitation (ChIP) on the endogenous rat L1 promoter region in NSCs; format: cell-based; conditions: 500 ng/ml, 4 days
Text: ChIP assay was done essentially following the manufacturer's protocol using a ChIP assay kit (Upstate). Antibodies used were anti-MeCP2 (Upstate), Sox2 (Chemicon), and IgG. Purified DNA was amplified by PCR using primers for the rat L1 5′UTR promoter region (L1.3, accession # X03095).

[3] = tested on: MeCP2 and Sox2; assay: Co-immunoprecipitation between MeCP2 and Sox2 in NSCs; format: cell-based, rat; conditions: in the presence of 5-Aza
Procedure: Immunofluorescence for EGFP was performed as previously described (11). A non-transgenic animal was used to measure the background fluorescence in the brain and to establish a threshold for detection. Western blotting was carried out using standard protocols with the following antibodies: mouse anti-Actin (1/500, Ambion), rabbit anti-MeCP2 (1/1000, Imgenex or Upstate), and rabbit anti-Sox2 (1/100, Chemicon). All secondary antibodies were purchased from Jackson ImmunoResearch. For co-immunoprecipitation, the Nuclear Complex Co-IP kit (Active Motif) was used, following the manufacturer's protocol with the highest stringency buffers.

[4] = tested on: L1 5′UTR promoter; assay: L1 5′UTR-Luc luciferase reporter assay in MeCP2 KO neuroepithelial cells; format: cell-based, mouse; conditions: Sox2 overexpression in MeCP2 KO neuroepithelial cells
Procedure: Rat NSCs were isolated, characterized and cultured as described (31,32). For neuronal differentiation, cells were cultured in N2 medium (Invitrogen) containing retinoic acid (RA, 1 μM, Sigma) and forskolin (5 μM, Sigma) for 4 days (11). Freshly isolated neuroepithelial cells from time-pregnant midgestation (E11.5) telencephalons from WT and MeCP2 KO sibling mouse embryos from the same background (C57BL/6J) were briefly cultured for 2-3 passages in FGF-2 as described elsewhere (19). Primary skin fibroblasts were isolated from tail biopsy and cultured in DMEM (Invitrogen) with 10% FBS (Invitrogen). Samples of all isolated cells were used for genotyping using previously described primers (33). Plasmid transfections were done by electroporation following the manufacturer's instructions (Amaxa Biosystem).
The L1 5′UTR-Luc plasmid was methylated by […] according to the manufacturer's protocol. Complete methylation was checked by digestion with Hpa II restriction enzyme. Luciferase activity was measured with the Dual-Luciferase reporter assay system (Promega) according to the manufacturer's protocol. Luciferase activity was usually measured 48 h after transfection. A plasmid containing the Renilla luciferase gene was used as an internal control. All the experiments were done at least 3 times independently and transfection efficiency was about 30% for all samples. […]

Sox2 binding / association to the L1 promoter region (ChIP) ([2]; listed as 5-Azacitidine): not Sox2 association
Molecule: Nc1ncn([C@@H]2O[C@H](CO)[C@@H](O)[C@H]2O)c(=O)n1 [5-Azacytidine]
methylation of the 5′UTR L1 region (5 CpG sites, bisulfite) [1]: completely removed methyl radicals
MeCP2 ChIP signal / association to the L1 promoter region [2]: the MeCP2 ChIP signal was lost
Sox2 binding / association to the L1 promoter region (ChIP) [2]: did not prevent Sox2 binding to the L1 promoter
MeCP2 ChIP signal / association to the L1 promoter region ([2]; listed as 5-Azacitidine): reduced MeCP2
amount of MeCP2 in association with Sox2 in solution (Co-IP) [3]: increased the amount of MeCP2 in association with Sox2 in solution

Molecule: Sox2: transcriptional factor Sox2, overexpressed in MeCP2 KO neuroepithelial cells
reduction of luciferase expression (L1 promoter activity) [4]: approximately 50%
